From patent US9150575B2, “Piperidinylpyrazolopyridine derivative” (Daiichi Sankyo Company, Limited, priority 2012, dated 2015)

Molecular target: T1, LCAT (Homo sapiens, UniProt P04180)
T1 construct: The obtained fraction was dialyzed against phosphate-buffered saline (pH 7.4) and used as an enzyme source and an acceptor for LCAT; from tissue; host or cells: HDL3 fraction (1.125<specific gravity<1.210 g/mL) of plasma from a healthy person
T1 sequence (P04180 25-440): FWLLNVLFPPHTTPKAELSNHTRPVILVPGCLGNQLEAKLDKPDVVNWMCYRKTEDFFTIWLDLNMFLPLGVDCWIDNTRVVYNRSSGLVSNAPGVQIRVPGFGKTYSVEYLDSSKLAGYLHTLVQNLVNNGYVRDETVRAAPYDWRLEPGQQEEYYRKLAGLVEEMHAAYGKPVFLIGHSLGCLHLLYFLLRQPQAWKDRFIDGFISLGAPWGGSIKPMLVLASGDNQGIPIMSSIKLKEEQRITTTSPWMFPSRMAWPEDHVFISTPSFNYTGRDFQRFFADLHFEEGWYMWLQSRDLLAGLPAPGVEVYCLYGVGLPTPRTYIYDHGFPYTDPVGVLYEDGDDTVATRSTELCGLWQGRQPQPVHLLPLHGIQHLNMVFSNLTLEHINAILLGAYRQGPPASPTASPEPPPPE
Assay: LCAT Activity Measurement (In Vitro)
Format: biochemical
Details: EC50 of LCAT activation; HDL3 fraction from plasma of a healthy person as enzyme source and acceptor; [14C]cholesterol; 37° C., approximately 16 hours
Experimental: A fraction composed of HDL3 (1.125<specific gravity<1.210 g/mL) was obtained from the plasma of a healthy person by density gradient centrifugation. The obtained fraction was dialyzed against phosphate-buffered saline (pH 7.4) and used as an enzyme source and an acceptor for LCAT. Each test drug was prepared by dissolution in dimethyl sulfoxide. [14C]Cholesterol containing DTNB (Ellman's reagent, final concentration: 0.5 mM), mercaptoethanol (final concentration: 12.5 mM), and 0.6% bovine serum albumin was added to phosphate-buffered saline (pH 7.4) containing 1 mg/mL HDL3, and the test drug was further added thereto at varying concentrations to adjust the whole amount to 80 μL. This mixture was incubated at 37° C. for approximately 16 hours. Then, a mixed solution of hexane and isopropanol (mixing ratio=3:2) was added thereto to stop the reaction. After stirring, the hexane layer was collected, and this layer was evaporated to dryness. A chloroform solution (concentration: 10 mg/mL) was added thereto, and the mixture was spotted onto a thin-layer silica gel plate and developed using a mixed solution of hexane, diethyl ether, and ethyl acetate (mixing ratio=85:15:2). The radioactivity of a portion corresponding to cholesterol oleate was measured using an imaging analyzer BAS-2500 (manufactured by Fujifilm Corp.). A sample non-supplemented with the test drug was similarly treated and assayed. The EC50 value of LCAT activation was calculated according to the expression given below relative to LCAT activity in the sample non-supplemented with the test drug.
wherein X represents the logarithm of the concentration of the test drug;
Y represents the responsiveness (LCAT activity) of the test drug;
Top represents the maximum value (maximum plateau);
Bottom represents the minimum value (minimum plateau); and
EC50 represents the 50% effective concentration.

| SMILES | EC50 |
| --- | --- |
| O=C1CC(O)(C(F)(F)F)c2c(C3CCN(c4ncc(C(F)(F)F)cn4)CC3)n[nH]c2N1 (stereo not drawn) [Example 44, 4-Hydroxy-4-(trifluoromethyl)-3-{1-[5-(trifluoromethyl)pyrimidin-2-yl]piperidin-4-yl}-1,4,5,7-tetrahydro-6H-pyrazolo[3,4-b]pyridin-6-one] | 360 nM |
| COc1ccc(N2CCC(c3n[nH]c4c3C(O)(C(F)(F)F)CC(=O)N4)CC2)cn1 (stereo not drawn) [Example 32, 4-Hydroxy-3-[1-(6-methoxypyridin-3-yl)piperidin-4-yl]-4-(trifluoromethyl)-1,4,5,7-tetrahydro-6H-pyrazolo[3,4-b]pyridin-6-one] | 300 nM |
| Cc1ccc(N2CCC(c3n[nH]c4c3C(O)(C(F)(F)F)CC(=O)N4)CC2)nc1 (stereo not drawn) [Example 4, 4-Hydroxy-3-[1-(5-methylpyridin-2-yl)piperidin-4-yl]-4-(trifluoromethyl)-1,4,5,7-tetrahydro-6H-pyrazolo[3,4-b]pyridin-6-one] | 250 nM |
| O=C1CC(O)(C(F)(F)F)c2c(C3CCN(c4ncc(C(F)(F)F)cc4F)CC3)n[nH]c2N1 (stereo not drawn) [Example 96, 3-{1-[3-Fluoro-5-(trifluoromethyl)pyridin-2-yl]piperidin-4-yl}-4-hydroxy-4-(trifluoromethyl)-1,4,5,7-tetrahydro-6H-pyrazolo[3,4-b]pyridin-6-one] | 220 nM |
| O=C1CC(O)(C(F)(F)F)c2c(C3CCN(c4nccc(C(F)(F)F)n4)CC3)n[nH]c2N1 (stereo not drawn) [Example 80, 4-Hydroxy-4-(trifluoromethyl)-3-{1-[4-(trifluoromethyl)pyrimidin-2-yl]piperidin-4-yl}-1,4,5,7-tetrahydro-6H-pyrazolo[3,4-b]pyridin-6-one] | 380 nM |
| N#Cc1cccnc1N1CCC(c2n[nH]c3c2C(O)(C(F)(F)F)CC(=O)N3)CC1 (stereo not drawn) [Example 100, 2-{4-[4-Hydroxy-6-oxo-4-(trifluoromethyl)-4,5,6,7-tetrahydro-1H-pyrazolo[3,4-b]pyridin-3-yl]piperidin-1-yl}pyridine-3-carbonitrile] | 1550 nM |
| N#Cc1ccc(N2CCC(c3n[nH]c4c3C(O)(C(F)(F)F)CC(=O)N4)CC2)nc1 (stereo not drawn) [Example 31, 6-{4-[4-Hydroxy-6-oxo-4-(trifluoromethyl)-4,5,6,7-tetrahydro-1H-pyrazolo[3,4-b]pyridin-3-yl]piperidin-1-yl}pyridine-3-carbonitrile] | 330 nM |
| N#Cc1cnc(N2CCC(c3n[nH]c4c3C(O)(C(F)(F)F)CC(=O)N4)CC2)c(C(F)(F)F)c1 (stereo not drawn) [Example 104, 6-{4-[4-Hydroxy-6-oxo-4-(trifluoromethyl)-4,5,6,7-tetrahydro-1H-pyrazolo[3,4-b]pyridin-3-yl]piperidin-1-yl}-5-(trifluoromethyl)pyridine-3-carbonitrile] | 1100 nM |
| COc1ccnc(N2CCC(c3n[nH]c4c3C(O)(C(F)(F)F)CC(=O)N4)CC2)n1 (stereo not drawn) [Example 30, 4-Hydro-3-[1-(4-methoxypyrimidin-2-yl)piperidin-4-yl]-4-(trifluoromethyl)-1,4,5,7-tetrahydro-6H-pyrazolo[3,4-b]pyridin-6-one] | 2460 nM |
| Cc1nc(N2CCC(c3n[nH]c4c3C(O)(C(F)(F)F)CC(=O)N4)CC2)cc(C(F)(F)F)n1 (stereo not drawn) [Example 87, 4-Hydroxy-3-{1-[2-methyl-6-(trifluoromethyl)pyrimidin-4-yl]piperidin-4-yl}-4-(trifluoromethyl)-1,4,5,7-tetrahydro-6H-pyrazolo[3,4-b]pyridin-6-one] | 300 nM |

The next compounds have a lower EC50 than those just listed; values first:

| EC50 | SMILES |
| --- | --- |
| 13 nM | O=C1CC(O)(C(F)(F)F)c2c(C3CCN(c4cnc(C(F)(F)F)nc4)CC3)n[nH]c2N1 (stereo not drawn) [Example 65, 4-Hydroxy-4-(trifluoromethyl)-3-{1-[2-(trifluoromethyl)pyrimidin-5-yl]piperidin-4-yl}-1,4,5,7-tetrahydro-6H-pyrazolo[3,4-b]pyridin-6-one] |
| 83 nM | CCc1ccc(N2CCC(c3n[nH]c4c3C(O)(C(F)(F)F)CC(=O)N4)CC2)nc1 (stereo not drawn) [Example 73, 3-[1-(5-Ethylpyridin-2-yl)piperidin-4-yl]-4-hydroxy-4-(trifluoromethyl)-1,4,5,7-tetrahydro-6H-pyrazolo[3,4-b]pyridin-6-one] |
| 56 nM | N#Cc1ccnc(N2CCC(c3n[nH]c4c3C(O)(C(F)(F)F)CC(=O)N4)CC2)c1 (stereo not drawn) [Example 33, 2-{4-[4-Hydroxy-6-oxo-4-(trifluoromethyl)-4,5,6,7-tetrahydro-1H-pyrazolo[3,4-b]pyridin-3-yl]piperidin-1-yl}pyridine-4-carbonitrile] |
| 86 nM | O=C1CC(O)(C(F)(F)F)c2c(C3CCN(c4ccc(Cl)cn4)CC3)n[nH]c2N1 (stereo not drawn) [Example 14, 3-[1-(5-Chloropyridin-2-yl)piperidin-4-yl]-4-hydroxy-4-(trifluoromethyl)-1,4,5,7-tetrahydro-6H-pyrazolo[3,4-b]pyridin-6-one] |
| 56 nM | O=C1CC(O)(C(F)(F)F)c2c(C3CCN(c4cc(C(F)(F)F)ccn4)CC3)n[nH]c2N1 (stereo not drawn) [Example 13, 4-Hydroxy-4-(trifluoromethyl)-3-{1-[4-(trifluoromethyl)pyridin-2-yl]piperidin-4-yl}-1,4,5,7-tetrahydro-6H-pyrazolo[3,4-b]pyridin-6-one] |
| 88 nM | CC(C)c1nc(N2CCC(c3n[nH]c4c3C(O)(C(F)(F)F)CC(=O)N4)CC2)cc(C(F)(F)F)n1 (stereo not drawn) [Example 88, 4-Hydroxy-3-{1-[2-(propan-2-yl)-6-(trifluoromethyl)pyrimidin-4-yl]piperidin-4-yl}-4-(trifluoromethyl)-1,4,5,7-tetrahydro-6H-pyrazolo[3,4-b]pyridin-6-one] |
| 18 nM | O=C1CC(O)(C(F)(F)F)c2c(C3CCN(c4ccc(OC(F)(F)F)cn4)CC3)n[nH]c2N1 (stereo not drawn) [Example 76, 4-Hydroxy-3-{1-[5-(trifluoromethoxy)pyridin-2-yl]piperidin-4-yl}-4-(trifluoromethyl)-1,4,5,7-tetrahydro-6H-pyrazolo[3,4-b]pyridin-6-one] |
| 67 nM | CC(C)Oc1ccc(N2CCC(c3n[nH]c4c3C(O)(C(F)(F)F)CC(=O)N4)CC2)nc1 (stereo not drawn) [Example 52, 4-Hydroxy-3-{1-[5-(propan-2-yloxy)pyridin-2-yl]piperidin-4-yl}-4-(trifluoromethyl)-1,4,5,7-tetrahydro-6H-pyrazolo[3,4-b]pyridin-6-one] |
| 31 nM | O=C1CC(O)(C(F)(F)F)c2c(C3CCN(c4cnc(OC(F)F)c(OC(F)F)c4)CC3)n[nH]c2N1 (stereo not drawn) [Example 63, 3-{1-[5,6-bis(Difluoromethoxy)pyridin-3-yl]piperidin-4-yl}-4-hydroxy-4-(trifluoromethyl)-1,4,5,7-tetrahydro-6H-pyrazolo[3,4-b]pyridin-6-one] |
| 84 nM | CN(C)c1nc(N2CCC(c3n[nH]c4c3C(O)(C(F)(F)F)CC(=O)N4)CC2)cc(C(F)(F)F)n1 (stereo not drawn) [Example 93, 3-{1-[2-(Dimethylamino)-6-(trifluoromethyl)pyrimidin-4-yl]piperidin-4-yl}-4-hydroxy-4-(trifluoromethyl)-1,4,5,7-tetrahydro-6H-pyrazolo[3,4-b]pyridin-6-one] |
| 21 nM | O=C1CC(O)(C(F)(F)F)c2c(C3CCN(c4cc(I)c(C(F)(F)F)cn4)CC3)n[nH]c2N1 (stereo not drawn) [Example 102, 4-Hydroxy-3-{1-[4-iodo-5-(trifluoromethyl)pyridin-2-yl]piperidin-4-yl}-4-(trifluoromethyl)-1,4,5,7-tetrahydro-6H-pyrazolo[3,4-b]pyridin-6-one] |
| 20 nM | O=C1CC(O)(C(F)(F)F)c2c(C3CCN(c4ccc(OC(F)(F)F)cc4)CC3)n[nH]c2N1 (stereo not drawn) [Example 58, 4-Hydroxy-3-{1-[4-(trifluoromethoxy)phenyl]piperidin-4-yl}-4-(trifluoromethyl)-1,4,5,7-tetrahydro-6H-pyrazolo[3,4-b]pyridin-6-one] |
| 68 nM | O=C1CC(O)(C(F)(F)F)c2c(C3CCN(c4cnc(C5CC5)nc4)CC3)n[nH]c2N1 (stereo not drawn) [Example 66, 3-[1-(2-Cyclopropylpyrimidin-5-yl)piperidin-4-yl]-4-hydroxy-4-(trifluoromethyl)-1,4,5,7-tetrahydro-6H-pyrazolo[3,4-b]pyridin-6-one] |
| 18 nM | O=C1CC(O)(C(F)(F)F)c2c(C3CCN(c4ccc(C(F)(F)F)cn4)CC3)n[nH]c2N1 (single isomer, unassigned; (-)) [Compound 49-1, (−)-4-Hydroxy-4-(trifluoromethyl)-3-{1-[5-(trifluoromethyl)pyridin-2-yl]piperidin-4-yl}-1,4,5,7-tetrahydro-6H-pyrazolo[3,4-b]pyridin-6-one] |
